Experimental data published in PubChem BioAssay AID248 (DTP/NCI, 2004).
Values joined by “and” are separate entries in the source; they are usually repeats but may differ in a detail not shown here. Equal entries are not always repeated. Toxic doses and inconclusive results are not listed. Cut-off read from the data, not from the text of the source: active = T/C of 150% or more; inactive = T/C below 125%.

Tested on: L1210 leukemia ip in BDF1 mice, survival T/C
Experiment: NCI In Vivo Anticancer Drug Screen. Data for tumor model L1210 Leukemia (intraperitoneal) in B6D2F1 (BDF1) mice
Settings: endpoint: mean survival time, higher = longer survival
How it was run: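 Each compound was tested against a transplantable tumor grown in mice. The endpoint was survival, with treated animals benchmarked against vehicle controls as a simple ratio.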

[1] = dose: 100.0 mg/kg/injection, schedule: Q04DX003 (ip), vehicle: saline
[2] = dose: 200.0 mg/kg/injection, schedule: Q04DX003 (ip), vehicle: saline
[3] = dose: 400.0 mg/kg/injection, schedule: Q04DX003 (ip), vehicle: saline
[4] = dose: 100.0 mg/kg/injection, schedule: Q04DX003 (ip), vehicle: Klucel (hydroxypropylcellulose) (HPC)
[5] = dose: 200.0 mg/kg/injection, schedule: Q04DX003 (ip), vehicle: Klucel (hydroxypropylcellulose) (HPC)
[6] = dose: 400.0 mg/kg/injection, schedule: Q04DX003 (ip), vehicle: Klucel (hydroxypropylcellulose) (HPC)
[7] = dose: 30.0 mg/kg/injection, schedule: Q01DX Z (ip), vehicle: saline
[8] = dose: 50.0 mg/kg/injection, schedule: Q01DX009 (ip), vehicle: saline
[9] = dose: 25.0 mg/kg/injection, schedule: Q04DX003 (ip), vehicle: saline
[10] = dose: 50.0 mg/kg/injection, schedule: Q04DX003 (ip), vehicle: saline

Measured: T/C

N#Cc1cccc(N)c1
inactive: dose: 100.0 mg/kg/injection, schedule: Q01DX001 (ip), vehicle: saline 109 % of control | [1] 100 % of control | [2] 94 % of control | dose: 400.0 mg/kg/injection, schedule: Q01DX001 (ip), vehicle: saline 88 % of control | [3] 93 % of control

CC(Cl)CN(CC(C)Cl)C(=O)OCC(NC(=O)OCc1ccccc1)C(=O)OCc1ccccc1 (configuration not stated)
inactive: dose: 100.0 mg/kg/injection, schedule: Q01DX009 (ip), vehicle: Klucel (hydroxypropylcellulose) (HPC) 88 % of control | [4] 87 % of control | [5] 96 % of control | dose: 400.0 mg/kg/injection, schedule: Q01DX009 (ip), vehicle: Klucel (hydroxypropylcellulose) (HPC) 91 % of control | [6] 91 % of control

O=C(NCCCCN1CC1)C(=O)Nc1ccccc1
inactive: dose: 12.5 mg/kg/injection, schedule: Q04DX003 (ip), vehicle: Klucel (hydroxypropylcellulose) (HPC) 97 % of control | dose: 25.0 mg/kg/injection, schedule: Q04DX003 (ip), vehicle: Klucel (hydroxypropylcellulose) (HPC) 93 % of control | dose: 50.0 mg/kg/injection, schedule: Q04DX003 (ip), vehicle: Klucel (hydroxypropylcellulose) (HPC) 98 % of control | [4] 103 % of control

CN(C)CC(=O)NCCCCCCCCCCNC(=O)CN(C)C
inactive: dose: 10.0 mg/kg/injection, schedule: Q01DX Z (ip), vehicle: saline 88 % of control | [7] 96 % of control | dose: 100.0 mg/kg/injection, schedule: Q01DX Z (ip), vehicle: saline 97 % of control | dose: 300.0 mg/kg/injection, schedule: Q01DX Z (ip), vehicle: saline 102 % of control

COc1ccc(NC(=O)c2ccc(Cl)cc2Cl)cc1
inactive: dose: 100.0 mg/kg/injection, schedule: Q04DX002 (ip), vehicle: Klucel (hydroxypropylcellulose) (HPC) 111 % of control | dose: 200.0 mg/kg/injection, schedule: Q04DX002 (ip), vehicle: Klucel (hydroxypropylcellulose) (HPC) 104 % of control | dose: 400.0 mg/kg/injection, schedule: Q04DX002 (ip), vehicle: Klucel (hydroxypropylcellulose) (HPC) 101 % of control

CC(=O)C1CCC2C3CCC4=CC(=O)CCC4(C)C3(C)C(=O)CC12C (configuration not stated)
inactive: dose: 50.0 mg/kg/injection, schedule: Q01DX001 (sc), vehicle: steriod suspending solution 102 % of control and 105 % of control | dose: 100.0 mg/kg/injection, schedule: Q01DX001 (sc), vehicle: steriod suspending solution 102 % of control and 107 % of control | dose: 200.0 mg/kg/injection, schedule: Q01DX001 (sc), vehicle: steriod suspending solution 105 % of control | dose: 400.0 mg/kg/injection, schedule: Q01DX001 (sc), vehicle: steriod suspending solution 105 % of control and 96 % of control

Clc1ccc(Cc2ccc(Cl)cc2)cc1
inactive: dose: 100.0 mg/kg/injection, schedule: Q01DX001 (ip), vehicle: carboxymethylcellulose (CMC) 107 % of control | dose: 200.0 mg/kg/injection, schedule: Q01DX001 (ip), vehicle: carboxymethylcellulose (CMC) 100 % of control | dose: 400.0 mg/kg/injection, schedule: Q01DX001 (ip), vehicle: carboxymethylcellulose (CMC) 102 % of control

COC(=O)C(C)(N)Cc1ccc(O)cc1 (configuration not stated)
inactive: [8] 102 % of control | dose: 100.0 mg/kg/injection, schedule: Q01DX009 (ip), vehicle: saline 97 % of control | [1] 96 % of control | dose: 200.0 mg/kg/injection, schedule: Q01DX009 (ip), vehicle: saline 105 % of control | [2] 93 % of control

Nn1c(=S)[nH][nH]c1=S
inactive: [1] 97 % of control | [2] 103 % of control | [3] 98 % of control

CC(C)(C)C(=O)CS(=O)(=O)C(Br)C(=O)C(C)(C)C (configuration not stated)
inactive: [4] 100 % of control

Cc1nc2cc(Cc3ccccc3)ccc2o1
inactive: dose: 100.0 mg/kg/injection, schedule: Q04DX003 (ip), vehicle: saline sonified 107 % of control | dose: 200.0 mg/kg/injection, schedule: Q04DX003 (ip), vehicle: saline sonified 105 % of control | dose: 400.0 mg/kg/injection, schedule: Q04DX003 (ip), vehicle: saline sonified 107 % of control

CCOc1ccccc1CC(=O)O
inactive: dose: 100.0 mg/kg/injection, schedule: Q01DX009 (ip), vehicle: saline with Tween-80 88 % of control | dose: 100.0 mg/kg/injection, schedule: Q04DX003 (ip), vehicle: saline with Tween-80 92 % of control | dose: 200.0 mg/kg/injection, schedule: Q01DX009 (ip), vehicle: saline with Tween-80 98 % of control | dose: 200.0 mg/kg/injection, schedule: Q04DX003 (ip), vehicle: saline with Tween-80 87 % of control | dose: 400.0 mg/kg/injection, schedule: Q01DX009 (ip), vehicle: saline with Tween-80 101 % of control | dose: 400.0 mg/kg/injection, schedule: Q04DX003 (ip), vehicle: saline with Tween-80 92 % of control

OC/C=[CH]\[Sn]([c]1ccccc1)([c]1ccccc1)[c]1ccccc1
inactive: dose: 100.0 mg/kg/injection, schedule: Q04DX002 (ip), vehicle: saline with Tween-80 95 % of control | dose: 200.0 mg/kg/injection, schedule: Q04DX002 (ip), vehicle: saline with Tween-80 119 % of control | dose: 400.0 mg/kg/injection, schedule: Q04DX002 (ip), vehicle: saline with Tween-80 119 % of control

CN(C)N=C1CCC(=NN(C)C)CC1
inactive: dose: 12.5 mg/kg/injection, schedule: Q04DX003 (ip), vehicle: saline 100 % of control | [9] 100 % of control | [10] 94 % of control | [1] 100 % of control | [2] 99 % of control

O=C(NNc1ccc([N+](=O)[O-])cc1)c1ccccc1
inactive: [4] 94 % of control | [5] 94 % of control | [6] 100 % of control

O=C(Nc1ccccc1)c1nccc2ccccc12
inactive: dose: 100.0 mg/kg/injection, schedule: Q01DX001 (ip), vehicle: steriod suspending solution 117 % of control | dose: 200.0 mg/kg/injection, schedule: Q01DX001 (ip), vehicle: steriod suspending solution 109 % of control | dose: 400.0 mg/kg/injection, schedule: Q01DX001 (ip), vehicle: steriod suspending solution 108 % of control

Cc1ccc(Br)c2c1CCC2=O
inactive: dose: 100.0 mg/kg/injection, schedule: Q01DX001 (ip), vehicle: Klucel (hydroxypropylcellulose) (HPC) 93 % of control | dose: 200.0 mg/kg/injection, schedule: Q01DX001 (ip), vehicle: Klucel (hydroxypropylcellulose) (HPC) 100 % of control | dose: 400.0 mg/kg/injection, schedule: Q01DX001 (ip), vehicle: Klucel (hydroxypropylcellulose) (HPC) 93 % of control

COC(=O)c1cccc2cn3ccc4c5ccccc5nc-4c3cc12
inactive: dose: 25.0 mg/kg/injection, schedule: Q01DX001 (ip), vehicle: saline with Tween-80 98 % of control | dose: 50.0 mg/kg/injection, schedule: Q01DX001 (ip), vehicle: saline with Tween-80 92 % of control | dose: 100.0 mg/kg/injection, schedule: Q01DX001 (ip), vehicle: saline with Tween-80 95 % of control and 92 % of control | dose: 400.0 mg/kg/injection, schedule: Q01DX001 (ip), vehicle: saline with Tween-80 92 % of control

N/N=C(\N)c1ccc(NC(=O)c2ccc(C(=O)Nc3ccc(/C(N)=N/N)cc3)cc2)cc1
inactive: dose: 15.0 mg/kg/injection, schedule: Q01DX Z (ip), vehicle: saline 104 % of control | [7] 100 % of control | dose: 60.0 mg/kg/injection, schedule: Q01DX Z (ip), vehicle: saline 103 % of control | dose: 120.0 mg/kg/injection, schedule: Q01DX Z (ip), vehicle: saline 97 % of control

CC(C)CCNc1ncnc2c1cnn2C
inactive: [9] 97 % of control | [10] 97 % of control | [1] 102 % of control

Cc1nc(NN)c(C(N)=O)nc1C
inactive: dose: 25.0 mg/kg/injection, schedule: Q01DX009 (ip), vehicle: saline 98 % of control | [9] 101 % of control | [8] 96 % of control | [10] 103 % of control | [1] 104 % of control

Oc1ccc2ccccc2c1C=Nc1ccc(Br)cc1
inactive: [4] 91 % of control | [5] 90 % of control | [6] 91 % of control

CCCn1c2c(c(=O)n(CC)c1=O)SC(OCC)C(=O)N2 (configuration not stated)
inactive: dose: 78.0 mg/kg/injection, schedule: Q01DX Z (ip), vehicle: other 96 % of control and 103 % of control | dose: 116.0 mg/kg/injection, schedule: Q01DX Z (ip), vehicle: other 108 % of control and 110 % of control | dose: 175.0 mg/kg/injection, schedule: Q01DX Z (ip), vehicle: other 116 % of control and 87 % of control | dose: 262.5 mg/kg/injection, schedule: Q01DX Z (ip), vehicle: other 92 % of control

Cc1ccc(NC(=O)C(Cl)(Cl)Cl)cc1C
inactive: [4] 93 % of control | [5] 101 % of control | [6] 90 % of control

C=C1C(=O)N2CCCC2C(=O)N1C (configuration not stated)
inactive: dose: 75.0 mg/kg/injection, schedule: Q04DX002 (ip), vehicle: saline 94 % of control | dose: 150.0 mg/kg/injection, schedule: Q04DX002 (ip), vehicle: saline 97 % of control | dose: 300.0 mg/kg/injection, schedule: Q04DX002 (ip), vehicle: saline 87 % of control
